Laboratory results reported in US9353082B2, “Pharmaceutical compounds” (BIAL—PORTELA & CA, S.A., priority 2008, dated 2016).

Molecular target: T1, FAAH (Mus musculus, UniProt O08914)
T1 construct: A fragment of liver, left lung lobe and brain without cerebellum were removed; from tissue; host or cells: male NMRI mice; brain (without cerebellum) and liver homogenates
T1 sequence (O08914 1-579): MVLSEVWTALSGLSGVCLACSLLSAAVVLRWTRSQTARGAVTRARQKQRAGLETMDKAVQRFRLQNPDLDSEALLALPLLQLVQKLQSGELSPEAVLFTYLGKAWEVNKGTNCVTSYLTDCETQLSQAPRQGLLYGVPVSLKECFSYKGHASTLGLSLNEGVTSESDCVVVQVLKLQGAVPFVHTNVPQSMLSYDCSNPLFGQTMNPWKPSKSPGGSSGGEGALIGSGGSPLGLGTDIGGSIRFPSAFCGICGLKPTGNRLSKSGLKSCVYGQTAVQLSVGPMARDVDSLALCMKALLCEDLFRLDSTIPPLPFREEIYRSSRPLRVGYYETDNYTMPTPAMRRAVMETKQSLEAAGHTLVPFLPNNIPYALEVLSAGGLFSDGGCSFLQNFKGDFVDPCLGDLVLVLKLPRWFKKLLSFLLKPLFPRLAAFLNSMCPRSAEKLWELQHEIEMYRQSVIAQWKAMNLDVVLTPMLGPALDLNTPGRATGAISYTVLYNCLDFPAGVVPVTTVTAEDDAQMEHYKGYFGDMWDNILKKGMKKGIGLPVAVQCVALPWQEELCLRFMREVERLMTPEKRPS
Assay: In vivo FAAH inhibition after oral dosing, remaining activity in brain homogenate (BRh, central nervous tissue)
Design: species or system NMRI mice
Settings: 8 h
Outline: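 Remaining FAAH activity is given as % of vehicle-treated controls after blank subtraction, measured by radiolabelled AEA hydrolysis (2 μM AEA, 5 nM 3H-AEA, 37 °C) in brain (10 min) or liver (7 min) homogenates. These came from fasted male NMRI mice dosed orally at 30 or 3 mg/kg.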

Compound: COc1cccc(-c2cn(C(=O)N3CCCc4ccccc43)cn2)c1 [Compound 39, (3,4-dihydroquinolin-1(2H)-yl)(4-(3-methoxyphenyl)-1H-imidazol-1-yl)methanone]
- In Vivo BRh 3 mg/kg 8 h, remaining FAAH activity (brain homogenate, 3 mg/kg): 120.6 % of control
- FAAH BRh 3 mg · kg · 8 h (in vivo, mouse brain, 3 mg/kg oral, remaining enzymatic activity): 120.6 % of control
